Patent US9119856B1, “Method for treating cancer using a dihydropyrimidine derivative” (KING SAUD UNIVERSITY, priority 2015, dated 2015)
Entries after “also recorded” stand apart in the source; their conditions may differ.

Assays:
[1] = test system: MCF-7 cells; assay: Flow cytometric DNA cell cycle analysis; assay type: cell-based, human; details: DHP-5 treated vs untreated
Description: 2×10^6 cells were fixed in 1 ml ethanol (70%) for 60 min. at room temperature. Harvested cells were resuspended in 1 ml Na citrate (50 mM) containing 250 μg RNase A and incubated at 50° C. for 60 min. Next, cells were resuspended in the same buffer containing 4 μg propidium iodine (PI) and incubated for 30 min. before being analyzed by flow cytometry (Becton Dickinson, San Jose, Calif., USA). The percentage of cells in various cell cycle phases was determined by using Cell Quest Pro software (Becton Dickinson).

[2] = test system: tumor derived cells of LOVO xenograft; assay: Side population analysis of tumor derived cells of LOVO xenograft; assay type: in vivo, Nude mice; details: DHP-5 50 mg/kg for 14 days, Verapamil 200 μM
Description: (§1) For DCV staining, cells were pelleted and suspended in DMEM cell culture medium at a concentration of 1*10^6 cells/ml. DCV (Invitrogen Molecular Probes®, Eugene, Oreg.) was added at a final staining concentration of 10 μM, as this concentration gave optimal separation between SP and non SP cells. PI stained was used to exclude dead cells. Functionally, to gate only side population cells, Verapamil 200 μM or FTC 10 μg/ml was used. All analyses were performed on a FACS LSRII (BD Biosciences). Debris and cell clusters were excluded during side-scatter and forward-scatter analyses.
A side population analysis of tumor derived cells of LOVO xenograft that were untreated (FIG. 4A), treated with side population inhibitor reference drug Verapamil 200 μM (FIG. 4B), and side population analysis of tumor cells derived from animals treated by DHP-5 50 mg/kg for 14 days.
Nude mice (Jackson Laboratories, Bar Harbor, Me., USA) were injected with 4*106 cells of MDA-MB-468 and LOVO subcutaneously in the right flank, and tumor size was measured weekly using a caliper. When the tumor reached approximately 400 mm^3 […], the mice were divided into control treated groups, the treatment including administration of DHP-5 (50 mg/Kg) via intraperitoneal injection daily for 14 days. The general toxicity of the treatment was determined by measuring the total body weight of the treated and control mice. […]

[3] = Cell proliferation in vitro; assay type: cell-based
[4] = test system: breast cancer cells; assay: Self-renewal ability of breast cancer cells; assay type: cell-based
[5] = test system: LOVO (colon cancer xenograft); assay: Antitumor activity in mice, LOVO colon cancer xenograft; assay type: in vivo, Nude mice; details: 50 mg/Kg intraperitoneal daily for 14 days
Description: (§2) Nude mice (Jackson Laboratories, Bar Harbor, Me., USA) were injected with 4*106 cells of MDA-MB-468 and LOVO subcutaneously in the right flank, and tumor size was measured weekly using a caliper. When the tumor reached approximately 400 mm^3 […], the mice were divided into control treated groups, the treatment including administration of DHP-5 (50 mg/Kg) via intraperitoneal injection daily for 14 days. The general toxicity of the treatment was determined by measuring the total body weight of the treated and control mice. The breeding, care and sacrifice of the animals were in accordance with the protocols approved by the Animal Care and Use Committee of the King Faisal Specialist Hospital and Research Centre.
(§3) Tumor growth of MDA-MB-468 (breast cancer xenograft) and LOVO (colon cancer xenograft) was recorded in untreated mice groups and DHP-5 (50 mg/kg) treated mice groups.

[6] = test system: MDA-MB-468 (breast cancer xenograft); assay: Antitumor activity in mice, MDA-MB-468 breast cancer xenograft; assay type: in vivo, Nude mice; details: 50 mg/Kg intraperitoneal daily for 14 days
Description: as §2, §3

[7] = General toxicity by total body weight of treated mice; assay type: in vivo; details: animal models of breast and colon cancer
Description: as §2

[8] = test system: MCF-7 breast cancer cells; assay: Side population analysis of MCF-7 breast cancer cells (DyeCycle Violet staining); assay type: cell-based, human; details: DHP-5 50, 75 and 100 μM, Verapamil 200 μM
Description: as §1

[9] = test system: lovo colon cancer cells; assay: Side population inhibition on lovo colon cancer cells; assay type: cell-based
Description: The relationship of compound structure and compound activity of various Formula I compounds, i.e., 5-benzoyl-3,4-dihydropyrimidin-2(1H)-one/thione compounds, on inhibition of side population cancer stem cells was studied. The various 5-benzoyl-3,4-dihydropyrimidin-2(1H)-one/thione compounds and the corresponding inhibition activity are provided below in Table 1.
The newly synthesized compounds DHP (1-9) were evaluated for side population inhibition on lovo colon cancer cells (%) at 10 μM concentration. […] It was noted that most of the compounds which include a methoxy group at R1 were active. The methoxy group seems to help the molecule to align in protein pocket. Compounds with an oxygen atom at R2 were also active. It seems that the oxygen atom at position R2 also plays some important role in binding with protein pocket.
as §1, with “Debris and cell clusters were excluded during side-scatter and forward-scatter analyses.” left out

[10] = target: T1, ABCG2 (Homo sapiens, UniProt Q9UNQ0); assay: Mitoxantrone accumulation in MCF-7 cells; assay type: cell-based
T1 construct: endogenous in cells; host or cells: MCF-7 cells
T1 sequence (Q9UNQ0 1-655): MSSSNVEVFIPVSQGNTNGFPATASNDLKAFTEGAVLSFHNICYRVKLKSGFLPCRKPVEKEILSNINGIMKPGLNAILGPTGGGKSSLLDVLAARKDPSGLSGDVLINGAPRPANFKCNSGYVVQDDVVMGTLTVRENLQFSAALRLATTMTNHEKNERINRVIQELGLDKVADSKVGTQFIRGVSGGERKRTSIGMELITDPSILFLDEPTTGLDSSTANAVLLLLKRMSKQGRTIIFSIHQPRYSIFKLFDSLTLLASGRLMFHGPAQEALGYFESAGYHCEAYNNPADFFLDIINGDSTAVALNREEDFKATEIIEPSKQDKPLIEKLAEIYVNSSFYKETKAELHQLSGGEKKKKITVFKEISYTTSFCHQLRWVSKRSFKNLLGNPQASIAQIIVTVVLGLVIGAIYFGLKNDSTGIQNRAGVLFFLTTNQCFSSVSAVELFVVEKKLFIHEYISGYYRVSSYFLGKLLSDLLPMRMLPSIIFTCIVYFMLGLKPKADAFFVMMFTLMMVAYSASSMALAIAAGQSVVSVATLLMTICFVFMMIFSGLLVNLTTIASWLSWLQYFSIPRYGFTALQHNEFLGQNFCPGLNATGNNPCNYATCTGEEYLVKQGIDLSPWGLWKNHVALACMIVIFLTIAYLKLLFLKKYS

[11] = test system: ABCG2; assay: Immunofluorescence staining of ABCG2 in MCF-7 cells; assay type: cell-based, human
[12] = Apoptosis induction in vitro; assay type: cell-based

In the case of CCOc1ccc(C2NC(=O)NC=C2C(=O)c2cc(OC)c(OC)c(OC)c2)cc1 (stereo not shown) [DHP-5, 4-(4-ethoxyphenyl)-5-(3,4,5-trimethoxybenzoyl)-3,4-dihydropyrimidin-2(1H)-one], the “cell cycle phase distribution” value [1] was “increased accumulation of treated cells in G2+M mitosis phase”, the “inhibitory effect on side population cancer stem cells of xenograft tumor cells versus Verapamil” value [2] was “more potent inhibitory effect of DHP-5 on side population cancer stem cells than reference drug Verapamil” and the cell proliferation [3] was “blocked cell proliferation”. The “self-renewal ability of breast cancer cells” value [4] was “blocking self-renewal ability of breast cancer cells in a dose dependent manner”, the “tumor growth, LOVO colon cancer xenograft” value [5] was “superior efficacy compared to reference drug Doxorubicin; also recorded: shrinking of tumor” and the “tumor growth, MDA-MB-468 breast cancer xenograft” value [6] was “superior efficacy compared to reference drug Doxorubicin; also recorded: shrinking of tumor”. The general toxicity [7] was “without any sign of general toxicity”, the “inhibitory effect on side population cancer stem cells versus Verapamil” value [8] was “more potent inhibitor of side population cells than reference drug Verapamil; also recorded: more potent inhibitory effect of DHP-5 on side population cancer stem cells than reference drug Verapamil” and the “side population inhibition, activity in words” value ([9]; 10 μM) was “moderately active”. The inhibition at 10 µM ([9]; Homo sapiens) was 58.8%, the “Mitoxantrone accumulation (selective ABCG2 substrate)” value [10] was “increase in Mitoxantrone accumulation” and the “expression of ABCG2” value [11] was “decreased the expression of ABCG2”. The apoptosis [12] was “induced apoptosis”.
